Source: article PMC6522510 (Nature Communications, 2019)

Key:
Set-up in all cases: species or system AML cell lines (8); Primary HTS, single concentration about 10 uM, Cell Titer Glo viability; log10 luminescence, per cent inhibition relative to cycloheximide control
Settings in all cases: 72 h, relative to cycloheximide control, log10 luminescence; inhibitor
[1] = tested on: MOLM-13
[2] = tested on: MV4-11
[3] = tested on: ML-2
[4] = tested on: CMK
[5] = tested on: CMS
[6] = tested on: M07e
[7] = tested on: CHRF288-11
[8] = tested on: U937

Compound	MOLM-13 %inh [1]	MV4-11 %inh [2]	ML-2 %inh [3]	CMK %inh [4]	CMS %inh [5]	M07e %inh [6]	CHRF288-11 %inh [7]	U937 %inh [8]
CCn1c(-c2nonc2N)nc2c(C#CC(C)(C)O)nc(OC[C@@H](N)c3ccccc3)cc21 [SJ000573312-1, LS204454-145A1 | LS204454-146A1]	19.15%	7.841%	7.922%	11.49%	24.21%	29.99%	122.3%	37.57%
CCn1c(-c2nonc2N)nc2c(C#CC(C)(C)O)nc(OC[C@H](N)c3ccccc3)cc21 [SJ000573312-2, LS204454-145A1 | LS204454-146A1]	14.91%	22.87%	28.64%	111.5%	42.42%	46.62%	83.17%	44.96%
CCn1c(-c2nonc2N)nc2c(C#CC(C)(C)O)nc(OCCNC)cc21 [SJ000573313-1, MS205583-134A1]	19.98%	55.12%	3.569%	13.56%	10.14%	22.08%	6.621%	64.14%
CCn1c(-c2nonc2N)nc2c(C#CC(C)(C)O)nc(CN3CCCC3)cc21 [SJ000573314-1, MR206418-021A1]	-1.58%	2.964%	-0.4194%	2.979%	3.945%	-3.096%	4.422%	4.345%
NS(=O)(=O)c1ccc(Nc2cc(-c3ccc(O)c(F)c3)n[nH]2)cc1 [SJ000573315-1, T350/112/30]	77.64%	53.96%	0.5816%	-1.653%	-2.048%	-0.4073%	-4.039%	0.1443%
N#Cc1c(NC(=O)CN2CCOCC2)sc2c1CCCC2 [SJ000573317-1, ST/830472]	-0.7057%	-2.657%	1.88%	-5.985%	0.5199%	3.047%	1.546%	3.525%
c1cnn2ncc(-c3ccnc(Nc4ccc5c(c4)OCCO5)n3)c2c1 [SJ000573318-1, U18020/87/1]	99.59%	79.44%	59.44%	109.1%	106%	112.6%	71.61%	81.34%
COc1cc(Nc2nccc(Nc3ccc4c(C)n[nH]c4c3)n2)cc(OC)c1OC [SJ000573319-1, U17574/67/1]	98.77%	77.98%	29.66%	114.1%	87.58%	71.44%	80.56%	62.59%
CCn1cc(-c2ccnc3[nH]ccc23)c(-c2cccc(NC(=O)Nc3ccc(OCc4ccccc4)cc3)c2)n1 [SJ000573320-1, R11459/78/21]	71.46%	7.18%	18.08%	77.69%	4.452%	13.09%	55.15%	1.634%
Nc1ncc(-c2cccc(S(N)(=O)=O)c2)c2scc(-c3ccc(F)c(Cl)c3)c12 [SJ000573321-1, T398/119/1]	16.59%	8.004%	3.028%	13%	4.233%	3.71%	3.763%	8.699%
COc1ccc2ncn(-c3cc(O[C@H](C)c4ccccc4C(F)(F)F)c(C(N)=O)s3)c2c1 [SJ000573322-1, U20814/199/10]	82.54%	71.74%	37.32%	113.1%	76.93%	100.1%	71.55%	82.26%
COc1ccc(-c2coc3ncnc(N)c23)cc1 [SJ000573323-1, R6872/61/3]	0.9708%	-1.377%	-3.247%	0.752%	-2.18%	-2.594%	1.277%	2.094%
NS(=O)(=O)c1ccc(Nc2cc(-c3cccc(O)c3)n[nH]2)cc1 [SJ000573324-1, T350/111/20]	21.76%	18.96%	1.059%	-2.15%	0.8193%	-0.9399%	-4.339%	-2.304%
Cc1ccc(-c2cc3c(NC(=O)C4CC4)ncnc3o2)cc1 [SJ000573325-1, T337/155/21]	-1.693%	-4.319%	1.949%	-5.745%	1.223%	5.01%	1.899%	-2.342%
NS(=O)(=O)c1cccc(Nc2cc(-c3ccc(F)cc3)n[nH]2)c1 [SJ000573326-1, T350/64/20]	68.76%	42.33%	1.419%	-1.826%	1.139%	6.143%	-0.9199%	-2.237%
CCn1c(-c2nonc2N)nc2c(C#CC(C)(C)O)nc(O[C@@H](CN)c3ccccc3)cc21 [SJ000573327-1, MS208738-058A1]	95.38%	81.31%	56.05%	85.94%	81.02%	123.2%	92%	77.05%
CCCN1CCC(c2ccc(Nc3nc(Nc4cc(F)ccc4C(N)=O)c4cc[nH]c4n3)c(OC)c2)CC1 [SJ000573328-1, U23536/58/1]	66.64%	58.24%	55.61%	51.59%	49%	37.4%	106.3%	63.82%
O=C(O[C@H]1CN[C@H](C#Cc2cc3ncnc(Nc4ccc(OCc5cccc(F)c5)c(Cl)c4)c3s2)C1)N1CCOCC1 [SJ000573329-1, U20348/87/4]	4.591%	10.03%	22.51%	8.904%	8.758%	-3.855%	79.21%	6.089%
N#Cc1cccc(Nc2nccc(-c3cnn4ncccc34)n2)c1 [SJ000573330-1, U19339/96/3]	98.39%	85.56%	56.71%	106.6%	104.6%	113.8%	55.56%	80.06%
Nc1ncnc2occ(-c3ccc(NC(=O)Nc4cc(C(F)(F)F)cc(C(F)(F)F)c4)cc3)c12 [SJ000573331-1, T299/133/15]	93.65%	73.61%	1.52%	3.982%	4.245%	1.156%	6.057%	4.807%
CC(=O)Nc1cccc(C#Cc2cncnc2Nc2ccc(OCc3cccc(F)c3)c(Cl)c2)c1 [SJ000573332-1, U21935/99/1]	0.3704%	0.9824%	1.213%	-0.8317%	0.8612%	1.101%	3.642%	4.462%
CCn1c(-c2nonc2N)nc2c(C#CC(C)(C)O)ncc(OC[C@@H]3CCCN3)c21 [SJ000573333-1, ML205742-149B0]	74.82%	16.86%	7.469%	15.2%	14%	9.925%	13.49%	42.79%
O=C(O[C@H]1CN[C@H](C#Cc2cc3ncnc(Nc4ccc(Cc5ccccc5)cc4)c3s2)C1)N1CCOCC1 [SJ000573334-1, U20046/184/1]	61.51%	4.189%	11.25%	86.74%	1.486%	4.781%	4.257%	2.636%
